{"source": "paper PMC9924089", "about": "“In Silico Discovery of Small Molecule Modulators Targeting the Achilles’ Heel of SARS-CoV-2 Spike Protein” (ACS Central Science, 2023)", "data": [{"molecular_target": "prototypic SARS-CoV-2 spike protein (Severe acute respiratory syndrome coronavirus 2, UniProt P0DTC2, K986P/R682S/R683G/R685G/V987P)", "assay": "biochemical", "format": "binding", "units": {"Kd": "µM"}, "values": [{"smiles": "CCCCCC(=O)Oc1ccc(/N=N/c2ccc(C#N)cc2)cc1", "note": "[0054-0201]", "Response at 50 μM (%)": "23.5%"}, {"smiles": "CC(=O)Nc1ccc(Oc2ccc3c(c2)C(=O)N(c2cccc(C)c2)C3=O)cc1", "note": "[0584-0466]", "Response at 50 μM (%)": "21.5%"}, {"smiles": "CCCCCCCCOc1ccc(OC(=O)c2ccco2)cc1", "note": "[0606-5952]", "Response at 50 μM (%)": "24.2%"}, {"smiles": "CCCCCCCOc1ccc(C2=N/C(=C/c3ccco3)C(=O)O2)cc1", "note": "[0782-7025]", "Response at 50 μM (%)": 12.8}, {"smiles": "COc1cccc(/C=C2/N=C(c3ccc(NC(C)=O)cc3)OC2=O)c1", "note": "[2082-0203]", "Response at 50 μM (%)": 17.9}, {"smiles": "CCN(CC)c1ccc(/C=N/c2ccc(S(N)(=O)=O)cc2)cc1", "note": "[2166-0281]", "Response at 50 μM (%)": 21}, {"smiles": "O=c1/c(=C/c2ccc(-c3cccc([N+](=O)[O-])c3)o2)sc2nc(-c3cccs3)nn12", "note": "[5629-0125]", "Response at 50 μM (%)": 16}, {"smiles": "O=C(COc1ccc(-c2cnc3ccccc3n2)cc1)c1cccs1", "note": "[6420-3607]", "Response at 50 μM (%)": 11.9}, {"smiles": "O=C(Oc1ccc(OC(=O)c2c(Cl)nsc2Cl)cc1)c1c(Cl)nsc1Cl", "note": "[8002-0592]", "Response at 50 μM (%)": 14.4}, {"smiles": "N#Cc1ccc(/N=C/c2cc([N+](=O)[O-])ccc2Cl)cc1", "note": "[AE-641/08724023]", "Response at 50 μM (%)": 19}, {"smiles": "CCC(=O)Nc1ccc(C(=O)OCC(=O)c2ccc(Cl)c(Cl)c2)cc1", "note": "[AJ-292/41945407]", "Response at 50 μM (%)": 7.7}, {"smiles": "O=C(COC(=O)c1ccc(Cl)cc1Cl)c1ccc(OC(=O)c2ccco2)cc1", "note": "[AK-918/41968204]", "Response at 50 μM (%)": 5.4}, {"smiles": "CCOc1ccc(C(=O)COC(=O)c2ccc(NC(C)=O)cc2)cc1", "note": "[AK-918/42180074]", "Response at 50 μM (%)": 5.7}, {"smiles": "CCCCOC(=O)c1ccc(OC(=O)c2cccc3ccccc23)cc1", "note": "[AN-652/43024838]", "Response at 50 μM (%)": 5.6}, {"smiles": "COc1ccc(/C=C/c2nn3c(Cc4ccccc4F)nnc3s2)cc1", "note": "[AP-501/43286897]", "Response at 50 μM (%)": 17.8}, {"smiles": "CC(=O)Nc1ccc(-c2cn3cc(Sc4ccccc4)ccc3n2)cc1", "note": "[AQ-776/42801545]", "Response at 50 μM (%)": 19.5}, {"smiles": "Cn1c(CSc2nc3ccccc3s2)nnc1SCC(=O)NCCO", "note": "[C592-3799]", "Response at 50 μM (%)": "25.5%"}, {"smiles": "COC(=O)c1ccc2c(c1)C(=O)/C(=C/c1ccc(-c3cccc(C(F)(F)F)c3)o1)O2", "note": "[C711-0480]", "Response at 50 μM (%)": "23.4%"}, {"smiles": "COc1ccc(-n2nnc3c(SCC(=O)OCc4ccccc4)ncnc32)cc1", "note": "[F0682-1220]", "Response at 50 μM (%)": 9}, {"smiles": "NCc1cncc(-c2ccccc2)c1", "note": "[F1905-6556]", "Response at 50 μM (%)": 14.1}, {"smiles": "O=C(CCn1ccc(=O)[nH]c1=O)NCc1cc(-c2ccccc2F)on1", "note": "[F2493-3278]", "Response at 50 μM (%)": 18.5}, {"smiles": "COc1ccc(-c2cc(COC(=O)CC3CCCCC3)no2)cc1", "note": "[F2496-0660]", "Response at 50 μM (%)": 10.1}, {"smiles": "O=C(OCc1cc(-c2ccc(F)cc2F)on1)c1ccc2[nH]cnc2c1", "note": "[F2496-3037]", "Response at 50 μM (%)": 3.6}, {"smiles": "O=C(CSc1ccncc1)OCc1cc(-c2ccccc2F)on1", "note": "[F2496-3101]", "Response at 50 μM (%)": 14}, {"smiles": "O=C(CCn1ccc(=O)[nH]c1=O)OCc1cc(-c2ccco2)on1", "note": "[F2496-3133]", "Response at 50 μM (%)": "21.1%"}, {"smiles": "O=C(OCc1cc(-c2cc3ccccc3o2)on1)c1ccc2[nH]cnc2c1", "note": "[F2496-3295]", "Response at 50 μM (%)": 16.2}, {"smiles": "CCCOC(=O)c1ccc(OCC(=O)c2ccc(O)cc2O)cc1", "note": "[F3139-1680]", "Response at 50 μM (%)": 13.9}, {"smiles": "COc1ccccc1-c1cc2c(=O)n(Cc3nc(-c4ccccn4)no3)ccn2n1", "note": "[F3382-3571]", "Response at 50 μM (%)": 8.9}, {"smiles": "CCCCOC(=O)c1ccc(NC(=O)c2cc(=O)c(OC)co2)cc1", "note": "[F5449-0108]", "Response at 50 μM (%)": 15.8}, {"smiles": "O=C(CCn1ccc(=O)[nH]c1=O)N1CC(c2nc(-c3cccc(Cl)c3)no2)C1", "note": "[F6064-2602]", "Response at 50 μM (%)": "22.3%"}, {"smiles": "COCCNC(=O)N1CC(c2nc(-c3cccc(Cl)c3)no2)C1", "note": "[F6064-2993]", "Response at 50 μM (%)": 9.8}, {"smiles": "O=C(Cc1noc2ccccc12)N1CC(c2nc(-c3ccc[nH]c3=O)no2)C1", "note": "[F6064-7687]", "Response at 50 μM (%)": 9.3}, {"smiles": "O=S(=O)(NCC#CCOc1cccc(C(F)(F)F)c1)c1cccs1", "note": "[F6412-1980]", "Response at 50 μM (%)": "27.1%"}, {"smiles": "O=C(Cc1cccnc1)N1CC(n2cc(COc3ccccc3)nn2)C1", "note": "[F6514-4048]", "Response at 50 μM (%)": 10.5}, {"smiles": "CC(=O)n1ccc2ccc(C(=O)CSc3nnc(-c4cccnc4)n3C)cc21", "note": "[K822-0272]", "Response at 50 μM (%)": 13.8}, {"smiles": "CCCCC/C=C\\C/C=C\\CCCCCCCC(=O)O", "note": "[LA, linoleic acid, reference compound]", "Kd": 34.2}, {"smiles": "CCCCCCCC/C=C\\CCCCCCCC(=O)O", "note": "[OA, oleic acid, reference compound]", "Kd": 28.5}, {"smiles": "COc1cccc(C(=O)COC(=O)c2ccc(O)cc2O)c1", "note": "[SPC-1]", "Response at 50 μM (%)": "46%"}, {"smiles": "Cc1nc(CSCCC(=O)N2CCc3ccc([N+](=O)[O-])cc32)cs1", "note": "[SPC-2]", "Response at 50 μM (%)": "40.2%"}, {"smiles": "Cn1c(SCc2nc(-c3ccccc3Cl)no2)nnc1-c1ccccc1F", "note": "[SPC-3]", "Response at 50 μM (%)": "51.8%"}, {"smiles": "CN(CCc1cnn(C)c1)C(=O)c1ccc(-c2ccccc2Cl)o1", "note": "[SPC-4]", "Response at 50 μM (%)": "30.4%"}, {"smiles": "COc1ccc(-c2noc(CSc3nnc(-c4ccccc4)n3C)n2)cc1", "note": "[SPC-5]", "Response at 50 μM (%)": "46.1%"}, {"smiles": "COc1cccc(-c2noc(CCC(=O)Nc3cccnc3)n2)c1", "note": "[SPC-6]", "Response at 50 μM (%)": "35.9%"}, {"smiles": "Cn1c(SCc2nc(-c3ccccc3)no2)nnc1-c1ccco1", "note": "[STL416744]", "Response at 50 μM (%)": "30.3%"}, {"smiles": "c1ccc(-c2nnc(SCCCSc3nnc(-c4ccccc4)o3)o2)cc1", "note": "[T6013936]", "Response at 50 μM (%)": 17.1}, {"smiles": "Cc1nc(C)c(-c2nnc(SCc3nc(-c4cccs4)oc3C)o2)s1", "note": "[T6037875]", "Response at 50 μM (%)": 18.3}, {"smiles": "COc1ccc(-c2nnc(SCc3nc(-c4ccco4)no3)o2)cc1", "note": "[T6080959]", "Response at 50 μM (%)": "21.2%"}, {"smiles": "c1csc(-c2noc(CSc3nnc(NC4CC4)s3)n2)c1", "note": "[T6141058]", "Response at 50 μM (%)": 14.3}, {"smiles": "Cc1ccc(-c2nc(CSc3nnc(-c4ccco4)o3)no2)cc1", "note": "[T6363271]", "Response at 50 μM (%)": 2.9}, {"smiles": "Cc1cc(C(=O)CSc2nnc(-c3nnc(-c4ccccc4)o3)o2)c(C)n1C", "note": "[T6388553]", "Response at 50 μM (%)": 18.3}, {"smiles": "CSc1nc(N)n2nc(C(C)(C)C)cc2n1", "note": "[compound 6536]", "Response at 50 μM (%)": "23.3%"}, {"smiles": "Cc1nc(C(F)(F)F)ccc1-c1nnc(SCc2ccc(OC(F)(F)F)cc2)o1", "note": "[compound 9502]", "Response at 50 μM (%)": "26.3%"}, {"smiles": "CN(CCCO)C(=O)c1coc(COc2cccc(F)c2F)n1", "note": "[compound 11547730]", "Response at 50 μM (%)": 14.9}, {"smiles": "Cc1cccc(-c2noc(CCc3nc(C4CCOC4)no3)n2)c1", "note": "(stereo not drawn) [compound 18297954]", "Response at 50 μM (%)": 16.5}, {"smiles": "COc1cccc(-c2ncc(CNC(=O)CC3NC(=O)NC3=O)s2)c1", "note": "(stereo not drawn) [compound 42995570]", "Response at 50 μM (%)": 16}]}, {"molecular_target": "SARS-CoV-2 spike protein (Severe acute respiratory syndrome coronavirus 2, UniProt P0DTC2, K986P/R682S/R683G/R685G/V987P)", "assay": "not given", "units": {"particles in the open state with one RBD up": "%"}, "values": [{"smiles": "O=C(O)CCCCCC(=O)N1CCc2ccc([N+](=O)[O-])cc21", "note": "[SPC-14]", "particles in the closed state (three RBD down)": "about 48%", "particles in the open state with one RBD up": 52}]}]}
